Measurements taken from US7205436B2, “Process for manufacture of quaternary ammonium tosylate salts of cinnamidoalkylamines and / or benzamidoalkylamines” (Galaxy Surfactants Limited, priority 2003, dated 2007).

Experiment: UV absorption: molar extinction coefficient in methanol
Type: physicochemical
Settings: at λmax 310 nm in methanol

molar extinction coefficient, ε: 25,000
SMILES: CCCCCCCCCCCC[N+](C)(C)CCCNC(=O)C=Cc1ccc(OC)cc1.Cc1ccc(S(=O)(=O)[O-])cc1 [Example I, p-methoxy cinnamidopropyldimethyllauryl ammonium tosylate]
